Laboratory results taken from US20250057788A1, “COMPOSITIONS AND METHODS FOR TREATMENT OF CHRONIC PAIN AND DEPRESSION” (priority 2023, published 2025).
Where a name gives a salt, the structure may show the parent alone.

Key:
[1] = tested on: formalin-induced pain (paw licking behavior); test: Rat formalin test (paw licking, acute and delayed/chronic phase); type: in vivo; details: for Acute paw lick response, Mean / Chronic (delayed) paw lick response, Mean / delayed paw licking responses vs. control: 100 μM; for Acute paw lick response, Mean / Chronic (delayed) paw lick response, Mean / delayed paw licking responses vs. control / enhancement of the effects of ketamine 100 μM: Example 4; for Paw licking time, Acute, Mean / Paw licking time, Chronic, Mean: NaOH where added equimolar; for Paw licking time, Acute, Mean: acute phase 0-10 min after formalin; for Paw licking time, Chronic, Mean: delayed phase from 10 min after formalin; for enhancement of the effects of ketamine 100 μM: hydroxide combined with ketamine 100 μM; for delayed hind paw licking (marginal means), Mean: TAS2R ligand .5 mM
Method: In this test, effects are measured on both acute and delayed formalin-induced pain, as reflected in paw licking behavior.
Methods: All studies were performed at Psychogenics, Inc. (Tarrytown, NY). Male SD rats (Envigo) were used in the study. All rats were examined and weighed (about 200 g) prior to initiation of the study to assure adequate health and suitability. For the formalin test, rats were habituated for 30 min in observation chambers with cameras positioned underneath. After the pre-treatment time, animals received a subcutaneous injection into the plantar surface of the left hind-paw with 15 μl of 5% formalin using a Hamilton micro-syringe and a 30-gauge needle.
Rats were returned to the observation chamber and immediately observed for behavior. The total time spent licking, flinching or biting the treated hind-paw over the next 35 min was recorded and videos were scored by a trained observer blinded to the treatment group. The acute response was evaluated in 5 min intervals for 0-10 min, and the delayed response was evaluated from 10-35 or 10-40 min.
For this experiment, effects of ketamine alone vs. ketamine+NaOH were assessed at concentrations between 30 uM (μM) and […] vs. control. Secondary analyses evaluated relative effects of ketamine+NaOH vs. ketamine alone. Analyses were performed by between-group t-tests or multiway ANOVA as expected. For each experiment, outliers ±2SD from the group means were removed from the analyses as flagged in study reports.
Methods: Overall methods were the same as for Example 1. However, for this study, the concentration of ketamine was fixed at 100 μM across conditions, and the ratio of NaOH to ketamine was varied from 1:10 (0.1 ratio) to 1:2 (0.5 ratio) to 3:4 (0.75 ratio) to 1:1 (1.0 ratio). An ANOVA was conducted across ratios to determine statistical significance.
Methods: Formalin test methods were the same as for examples 1 and 2. […] Denatonium was additionally administered combined with Ketamine 100 μM.
In order to evaluate the specificity of the synergistic effect between ketamine and NaOH, formalin tests were evaluated in combination with other hydroxides, including Ca(OH)2 and KOH. […] Formalin tests were therefore conducted in the presence of 100 μM S-ketamine relative to racemic ketamine.

[2] = tested on: depression-related behaviors in SNL animals with chronic pain; test: Forced swim test in spinal nerve ligation (SNL) rats; type: in vivo, rat; details: ketamine NaOH at 0.5 ratio, FIG. 5
Text: Chronic pain may also lead to depressive symptoms that cause additional disability and may reflect an independent treatment target. Anti-depression effects may be modeled in rodents using behavioral measures including the forced swim test, which measures the time that rodents remain immobile when placed in water. In one model, chronic pain Is created by spinal nerve ligation (SNL) in which a ligation is placed around the left L5 nerve, which leads to hypersensitivity of the paw withdrawal threshold.
Methods: Male Sprague Dawley rats (about 150 g on arrival) from Envigo were used. Upon receipt animals were group housed for the remainder of their stay at PsychoGenics. […]
Spinal nerve ligation: Under general anesthesia with continuous inhalation of isoflurane, surgery was performed with aseptic procedures. […] Each rat was monitored until awake and moving freely around the recovery chamber. […]
Forced swim test: The forced swim (FS) test is considered to predict anti-depression effects. When rats are forced to swim in a small cylinder from which no escape is possible, they readily adopt a characteristic immobile posture and make no further attempts to escape except for small movements needed to prevent them from drowning. […] Immobility, climbing, and swimming behaviors were recorded every 5 sec for a total of 60 counts per subject. […]

Structure (SMILES): CNC1(c2ccccc2Cl)CCCCC1=O (racemic) [Ketamine, Ketamine HCl]
- Acute paw lick response, Mean [1]: 54.5
- Chronic (delayed) paw lick response, Mean [1]: 196.4
- delayed paw licking responses vs. control [1]: did not significantly reduce delayed responses
- inhibition of delayed response ([1]; concentrations of ≥30 mM, all p<0.005): significant inhibition of delayed response
- effects on acute response ([1]; doses of ≥100 mM, all p<0.001, suggesting non-specific behavioral effects): significant effects
- Paw licking time, Acute, Mean ([1]; ketamine 30 μM): 55.20 s
- Paw licking time, Chronic, Mean ([1]; ketamine 30 μM): 56.00 s
- delayed response, post-hoc difference vs. control ([1]; ketamine 30 μM, one-way ANOVA): significant post-hoc differences vs. control
- Paw licking time, Acute, Mean ([1]; ketamine 100 μM): 50.95 s
- Paw licking time, Chronic, Mean ([1]; ketamine 100 μM): 140.71 s
- Paw licking time, Acute, Mean ([1]; ketamine 300 μM): 40.50 s
- Paw licking time, Chronic, Mean ([1]; ketamine 300 μM): 147.00 s
- Paw licking time, Acute, Mean ([1]; ketamine 30 mM): 39.44 s
- Paw licking time, Chronic, Mean ([1]; ketamine 30 mM): 49.88 s
- Paw licking time, Acute, Mean ([1]; ketamine 100 mM): 0.11 s
- Paw licking time, Chronic, Mean ([1]; ketamine 100 mM): 0.00 s
- Paw licking time, Acute, Mean ([1]; ketamine 300 mM): 0.11 s
- Paw licking time, Chronic, Mean ([1]; ketamine 300 mM): 0.00 s
- immobility time [2]: significantly reduced immobility time
- swimming time [2]: increased swimming time

Structure (SMILES): [Ca+2].[OH-].[OH-] [Ca(OH)2]
- enhancement of the effects of ketamine 100 μM [1]: Neither Ca(OH)2 or KOH enhanced

Structure (SMILES): CN[C@]1(c2ccccc2Cl)CCCCC1=O [S-ketamine]
- Acute paw lick response, Mean [1]: 50.5
- Chronic (delayed) paw lick response, Mean [1]: 120.6
- delayed paw licking responses vs. control [1]: numeric decreases in delayed paw licking vs. control, but the differences were not statistically significant

Structure (SMILES): [K+].[OH-] [KOH]
- enhancement of the effects of ketamine 100 μM [1]: Neither Ca(OH)2 or KOH enhanced

Structure (SMILES): C=C[C@H]1C[N@@]2CC[C@H]1C[C@@H]2[C@@H](O)c1ccnc2ccc(OC)cc12 [Quinidine, Quinidine gluconate]
- delayed hind paw licking (marginal means), Mean [1]: 288.6 s

Structure (SMILES): CC[N+](CC)(CC(=O)Nc1c(C)cccc1C)Cc1ccccc1 [Denatonium, Denatonium benzoate]
- delayed hyperalgesic response vs. control ([1]; 0.5 mM, p=0.029): significant reduction in hyperalgesia
- delayed hind paw licking (marginal means), Mean [1]: 161.0 s
